Measured values: patent US8604016B2, “Heterocyclic inhibitors of glutaminase” (Calithera Biosciences Inc., priority 2011, dated 2013)
In brackets after ≈: the same amount, converted by molar mass.

How the values were obtained:
[1] = Caco-2 Permeability Assay (bidirectional); assay type: in vitro ADME; conditions: human; for recovery at 120 min, 1 μM / Papp A→B at 120 min, 1 μM / Papp B→A at 120 min, 1 μM: pH 7.4; for efflux ratio at 120 min, 1 µM / Papp A→B at 120 min, 1 μM / Papp B→A at 120 min, 1 μM / permeability class (Low/High absorption potential) at 120 min, 1 µM: Caco-2; for efflux ratio at 120 min, 1 µM: (Papp B→A)/(Papp A→B); for Papp A→B at 120 min, 1 μM: Direction A→B; for Papp A→B at 120 min, 1 μM / Papp B→A at 120 min, 1 μM: unit not given (thresholds in 10^−6 cm/s); for Papp B→A at 120 min, 1 μM: Direction B→A; for permeability class (Low/High absorption potential) at 120 min, 1 µM: read-out: Permeability Classification
Description: (§1) Caco-2 cells are commonly used in a confluent monolayer on a cell culture insert filter. When cultured in this format and under specific conditions, the cells become differentiated and polarized such that their phenotype, morphologically and functionally resembles the enterocytes lining the small intestine. The cell monolayer provides a physical and biochemical barrier to the passage of small molecules, and is widely used across the pharmaceutical industry as an in vitro model of the human small intestinal mucosa to predict the absorption of orally administered drugs (Hidalgo et al., Gastroenterology, 1989; Artursson, J. Pharm. Sci., 1990). The correlation between the in vitro apparent permeability (P ? app) across Caco-2 monolayers and the in vivo absorption is well established (Artursson et al., Biochem. Biophys. Res. Comm., 1991).
(§2) The present assay was used to determine the bidirectional permeability of the compounds of the invention through Caco-2 cell monolayers. Caco-2 cells were grown in confluent monolayers where the media of both the apical (A) and basolateral (B) sides were at pH 7.4. Compounds were dosed at 1 μM in the presence of 200 μM Lucifer Yellow, on the apical side (A→B) or the basolateral side (B→A) for assessment, in duplicate.
(§3) The absorption potential of compounds were classified as either Low (P-app <1×10^−6 cm/s) or High (P-app >1×10^−6 cm/s).

Caco-2 cell monolayers = test: Caco-2 Permeability Assay (bidirectional); assay type: in vitro ADME
Description: as §1, §2, §3

[2] = Solubility (18 hr vortex mixing at room temperature, filtration, HPLC); assay type: physicochemical; conditions: thermodynamic from solid
Procedure: Ca. 1 mg portions of test article were combined with 120 μL solvent in wells of a 96×2 mL polypropylene plate. […] The contents of all wells were then filtered through a 0.45 μm GHP filter plate to yield clear filtrates. 5 μL of each filtrate was diluted into 100 μL DMF and vortex mixed to yield HPLC samples. Duplicate quantitation standards for each test article were prepared by diluting weighed portions of solid test article in measured volumes of DMF. 2 μL of each HPLC sample and quantitation standard were analyzed by HPLC using the method outlined in Table 5. Dissolved test article concentrations were calculated by peak area ratio against the appropriate quantitation standards.

P493-6 (myc "on") cells = test: Cell Proliferation Assay (72 hrs, Cell Titer Glo or Viacount FACS); assay type: cell-based; conditions: read-out: Cell prolif P493 72h IC50; P493-6 cells, 72 h
Procedure: P493-6 (myc “on”) cells were maintained in growth media (RPMI-1640, 10% FBS, 2 mM glutamine, 100 units/ml Penicillin and 100 μg/ml streptomycin) at 37° C. with 5% CO2. For compound assay, P493-6 cells were plated in 96-well V-bottom plates on the day of compound addition in 50 μl of growth media at a cell density of 200,000 cells/ml (10,000 cells/well). Compounds were serially diluted in 100% DMSO at 200-times the final concentration. Compounds were diluted 100-fold into growth media and then 50 μl of this mixture was added to cell plates making the final concentration of DMSO 0.5%. Cells were incubated with compound for 72 hrs at 37° C. with 5% CO2 and analyzed for antiproliferative effects either by Cell Titer Glo (Promega) or FACS analysis using the Viacount (Millipore) kit on the Guava instrument.

[3] = 50 mM citrate buffer pH 2.3, 20 °C, aqueous buffer, 50 mM Cit pH 2.3, room temperature
[4] = 50 mM citrate buffer pH 3.3, 20 °C, aqueous buffer, 50 mM Cit pH 3.3, room temperature
[5] = 50 mM citrate buffer pH 4.4, 20 °C, aqueous buffer, 50 mM Cit pH 4.4, room temperature
[6] = 50 mM citrate buffer pH 5.4, 20 °C, aqueous buffer, 50 mM Cit pH 5.4, room temperature
[7] = 20 °C, aqueous buffer, PBS, room temperature
[8] = 20 °C, aqueous with cosolvent or surfactant or cyclodextrin, 10% CrEL/50 mM cit, room temperature
[9] = 20 °C, aqueous with cosolvent or surfactant or cyclodextrin, 10% PS80/50 mM cit, room temperature
[10] = 20 °C, aqueous with cosolvent or surfactant or cyclodextrin, 20% HPBCD/50 mM cit, room temperature
[11] = 20 °C, aqueous with cosolvent or surfactant or cyclodextrin, 20% SBECD/50 mM cit, room temperature
[12] = 20 °C, oil or lipid, Capryol 90, room temperature
[13] = 20 °C, oil or lipid, Capryol PGMC, room temperature
[14] = 20 °C, oil or lipid, Labrasol, room temperature
[15] = 20 °C, oil or lipid, canola oil, room temperature
[16] = 20 °C, organic solvent or mixture, EtOH, room temperature
[17] = 20 °C, organic solvent or mixture, PEG400, room temperature
[18] = 20 °C, organic solvent or mixture, PG, room temperature
[19] = 20 °C, pH 1, simulated gastric fluid, 0.1M HCl, room temperature
[20] = 20 °C, pH 13, aqueous buffer, 0.1M NaOH, room temperature
[21] = 20 °C, saline or isotonic, 0.9% NaCl, room temperature
[22] = water, room temperature (ca. 20 C)

Row | Structure (SMILES) | recovery at 120 min, 1 μM ([1]; Caco-2, pH 7.4, Direction A→B) [%] | recovery at 120 min, 1 μM ([1]; Caco-2, pH 7.4, Direction B→A) [%] | efflux ratio at 120 min, 1 µM [1] | Papp A→B at 120 min, 1 μM [1] [×10⁻⁶ cm/s] | Papp B→A at 120 min, 1 μM [1] [×10⁻⁶ cm/s] | permeability class (Low/High absorption potential) at 120 min, 1 µM [1] [×10⁻⁶ cm/s] | solubility at 18 h [2, 3] [µg/mL] | solubility at 18 h [2, 4] [µg/mL] | solubility at 18 h [2, 5] [µg/mL] | solubility at 18 h [2, 6] [µg/mL] | solubility at 18 h [2, 7] [µg/mL] | solubility at 18 h [2, 8] [µg/mL] | solubility at 18 h [2, 9] [µg/mL] | solubility at 18 h [2, 10] [µg/mL] | solubility at 18 h [2, 11] [µg/mL] | solubility at 18 h [2, 12] [µg/mL] | solubility at 18 h [2, 13] [µg/mL] | solubility at 18 h [2, 14] [µg/mL] | solubility at 18 h [2, 15] [µg/mL] | Significant Efflux (Caco-2 cell monolayers) | further results
1 | O=C(Cc1cccc(OC(F)(F)F)c1)Nc1ccc(CCCCc2nnc(NC(=O)[C@@H](O)c3ccccc3)s2)nn1 [Compound 703] | 51 | 66 | 6.6 | 6.26 | 41 | > 1 | < 4 | < 4 | < 4 | < 4 | < 4 | 309 (≈ 527 µM) | 378 (≈ 644 µM) | 651 (≈ 1110 µM) | 476 (≈ 811 µM) | 7410 (≈ 12600 µM) | 3680 (≈ 6280 µM) | 20700 (≈ 35300 µM) | 14 (≈ 23.9 µM) | Yes (efflux ratios being significant when greater than or equal to 3 when the Papp (B→A) was greater than or equal to 1×10^−6 cm/s) | solubility at 18 h [2, 16]: 2640 µg/mL (≈ 4510 µM); solubility at 18 h [2, 17]: 22400 µg/mL (≈ 38200 µM); solubility at 18 h [2, 18]: 4700 µg/mL (≈ 8010 µM); solubility at 18 h [2, 19]: < 4 µg/mL; solubility at 18 h [2, 20]: 656 µg/mL (≈ 1120 µM); solubility at 18 h [2, 21]: < 4 µg/mL; solubility at 18 h [2, 22]: < 4 µg/mL
2 | O=C(Cc1cccc(OC(F)(F)F)c1)Nc1ccc(CCCCc2nnc(NC(=O)C(O)c3cccc(Cl)c3)s2)nn1 (centres unmarked) [Compound 447] | 71 | 56 | 3.5 | 7.76 | 27.2 | > 1 | < 4 | < 4 | < 4 | < 4 | < 4 | 732 (≈ 1180 µM) | 851 (≈ 1370 µM) | 2180 (≈ 3510 µM) | 2720 (≈ 4380 µM) | 11100 (≈ 17900 µM) | 7920 (≈ 12700 µM) | 77200 (≈ 124000 µM) | 71 (≈ 114 µM) | Yes (efflux ratios being significant when greater than or equal to 3 when the Papp (B→A) was greater than or equal to 1×10^−6 cm/s) | solubility at 18 h [2, 16]: 3920 µg/mL (≈ 6310 µM); solubility at 18 h [2, 17]: 57300 µg/mL (≈ 92300 µM); solubility at 18 h [2, 18]: 8260 µg/mL (≈ 13300 µM); solubility at 18 h [2, 19]: < 4 µg/mL; solubility at 18 h [2, 20]: 192 µg/mL (≈ 309 µM); solubility at 18 h [2, 21]: 5 µg/mL (≈ 8.05 µM); solubility at 18 h [2, 22]: < 4 µg/mL
3 | O=C(Cc1cccc(CN2CCNCC2)c1)Nc1nnc(CCCCc2nnc(NC(=O)Cc3cccc(CN4CCNCC4)c3)s2)s1 [Compound 276] |  |  |  |  |  |  |  |  |  |  |  |  |  |  |  |  |  |  |  |  | IC50 (P493-6 (myc "on") cells): 56 µM
4 | O=C(Cc1ccccc1Cl)Nc1ccc(CCCCc2nnc(NC(=O)Cc3ccccc3F)s2)nn1 [Compound 533] | 41 | 52 | 7.6 | 4.94 | 37.5 | > 1 |  |  |  |  |  |  |  |  |  |  |  |  |  | Yes (efflux ratios being significant when greater than or equal to 3 when the Papp (B→A) was greater than or equal to 1×10^−6 cm/s) | 

The next lines start with results.

Row | recovery at 120 min, 1 μM ([1]; Caco-2, pH 7.4, Direction A→B) [%] | recovery at 120 min, 1 μM ([1]; Caco-2, pH 7.4, Direction B→A) [%] | efflux ratio at 120 min, 1 µM [1] | Papp A→B at 120 min, 1 μM [1] [×10⁻⁶ cm/s] | Papp B→A at 120 min, 1 μM [1] [×10⁻⁶ cm/s] | permeability class (Low/High absorption potential) at 120 min, 1 µM [1] [×10⁻⁶ cm/s] | solubility at 18 h [2, 3] [µg/mL] | solubility at 18 h [2, 4] [µg/mL] | solubility at 18 h [2, 5] [µg/mL] | solubility at 18 h [2, 6] [µg/mL] | solubility at 18 h [2, 7] [µg/mL] | solubility at 18 h [2, 8] [µg/mL] | solubility at 18 h [2, 9] [µg/mL] | solubility at 18 h [2, 10] [µg/mL] | solubility at 18 h [2, 11] [µg/mL] | solubility at 18 h [2, 12] [µg/mL] | solubility at 18 h [2, 13] [µg/mL] | solubility at 18 h [2, 14] [µg/mL] | solubility at 18 h [2, 15] [µg/mL] | Structure (SMILES) | Significant Efflux (Caco-2 cell monolayers) | further results
5 | 42 | 53 | 3.1 | 7.52 | 23.4 | > 1 | < 2 | < 2 | < 2 | < 2 | < 2 | 228 (≈ 400 µM) | 261 (≈ 457 µM) | 327 (≈ 573 µM) | 125 (≈ 219 µM) | 1740 (≈ 3060 µM) | 1780 (≈ 3120 µM) | 5000 (≈ 8770 µM) | 72 (≈ 126 µM) | O=C(Cc1cccc(OC(F)(F)F)c1)Nc1ccc(CCCCc2nnc(NC(=O)Cc3ccccc3)s2)nn1 [Compound 585] | Yes (efflux ratios being significant when greater than or equal to 3 when the Papp (B→A) was greater than or equal to 1×10^−6 cm/s) | solubility at 18 h [2, 16]: 1990 µg/mL (≈ 3490 µM); solubility at 18 h [2, 17]: 3940 µg/mL (≈ 6910 µM); solubility at 18 h [2, 18]: 1420 µg/mL (≈ 2490 µM); solubility at 18 h [2, 19]: < 2 µg/mL; solubility at 18 h [2, 20]: 192 µg/mL (≈ 336 µM); solubility at 18 h [2, 21]: < 2 µg/mL; solubility at 18 h [2, 22]: < 2 µg/mL
6 | 89 | 96 | 7.3 | 8.17 | 59.8 | > 1 | < 2 | < 2 | < 2 | < 2 | < 2 | 55 (≈ 113 µM) | 27 (≈ 55.5 µM) | 167 (≈ 343 µM) | 90 (≈ 185 µM) | 215 (≈ 442 µM) | 1540 (≈ 3160 µM) | 918 (≈ 1890 µM) | < 2 | O=C(Cc1ccccc1)Nc1ccc(CCCCc2nnc(NC(=O)Cc3ccccc3)s2)nn1 [Compound 295] | Yes (efflux ratios being significant when greater than or equal to 3 when the Papp (B→A) was greater than or equal to 1×10^−6 cm/s) | solubility at 18 h [2, 16]: 83 µg/mL (≈ 171 µM); solubility at 18 h [2, 17]: 1640 µg/mL (≈ 3380 µM); solubility at 18 h [2, 18]: 234 µg/mL (≈ 481 µM); solubility at 18 h [2, 19]: 3 µg/mL (≈ 6.17 µM); solubility at 18 h [2, 20]: 268 µg/mL (≈ 551 µM); solubility at 18 h [2, 21]: < 2 µg/mL; solubility at 18 h [2, 22]: < 2 µg/mL
